Patent US20090069241A1, “Compositions and Methods for Use of Pigment Epithelial Derived Factor (PEDF) Peptide Fragments” (Yale University, priority 2006, published 2009)

Columns and labels:
Assay type in all cases: in vivo, C57/B16 mice
Erk = test: Western blot of phosphorylated Erk in retinas after ischemic injury; details: 48 hours after ischemic injury; control retinas: not detected at 48 hours
Experimental: (§1) Induction of transient retinal ischemia in C57/B16 mice: Animal experiments were conducted in accordance with ARVO guidelines and were approved by the Animal Care and Use Committee of Yale University School of Medicine. Transient retinal ischemia was induced in one eye and the contralateral eye served as control. During the operation and recovery period, animals were placed on water heating pads at 37° C. Eighty-one 10-14 weeks male C57/B16 mice (Charles River Laboratories, Wilmington, Mass., weighing […]) were used in this experiment. To induce retinal ischemia, a previously established technique with some modifications was used (Hughes, 1991, Exp Eye Res. 53(5):573-582; Buchi et al., 1991, Opthalmologica 203 (3): 138-147). Briefly, animals were anesthetized by i.p. injection of a mixture of 100 mg/kg Ketamine+10 mg/kg Xylazine. […]
(§2) The effect of PEDF82-121 on STAT3 and Erk after ischemic injury was examined by Western blot. In control retinas subjected to ischemic injury, phosphorylated STAT3 was detected at 24 hours but not at 1 hour, 4 hours, 12 hours or 48 hours after ischemic injury. […] In control retinas, phosphorylated Erk was detect strongly at 4 hours and 12 hours after ischemic injury but was barely detectable at 24 hours and not detected at 48 hours. […]

[1] = tested on: inner retina (INL, IPL, retinal ganglion cell layer); test: Transient retinal ischemia-reperfusion injury with intravitreous injection; morphometric analysis of inner retina; design: thickness of the INL compared with non-ischemia control / thickness of the IPL compared with non-ischemia control / surviving cells in the RGC layer compared with non-ischemia control: concentration or dose not given beside the values; details: for surviving cells in the RGC layer compared with non-ischemia control / thickness of the INL compared with non-ischemia control / thickness of the IPL compared with non-ischemia control: single intravitreous injection immediately after ischemia
Experimental: Induction of transient retinal ischemia in C57/B16 mice: Animal experiments were conducted in accordance with ARVO guidelines and were approved by the Animal Care and Use Committee of Yale University School of Medicine. Transient retinal ischemia was induced in one eye and the contralateral eye served as control. During the operation and recovery period, animals were placed on water heating pads at 37° C. […] Briefly, animals were anesthetized by i.p. injection of a mixture of 100 mg/kg Ketamine+10 mg/kg Xylazine. […] The anterior chambers were cannulated in fully anesthetized animals with a 30-gauge infusion needle connected by PE10 polyethylene tubing and IV set to a physiological saline reservoir. The intraocular pressure (IOP) of the cannulated eye was raised to 120 mmHg for 60 minutes by elevating the saline reservoir. Retinal ischemia was confirmed by direct microscopic observation of whitening of the fundus. The reperfusion was confirmed visually when needle was withdrawn from the anterior chamber. One group of animals was treated with Vetropolycin® ophthalmic ointment (Pharmaderm, Melville, N. Y.) on the ischemic eyes and allowed to recover for 24 hours, 48 hours, 7 days and 14 days before sacrifice. Other groups were kept for intravitreous injections of the PEDF and PEDF peptides.
Intravitreous injection of PEDF, PEDF peptides and encapsulated PEDF peptide: One group of animals remained uninjected to monitor ischemic damage. All other groups received intravitreal injections, which were performed under an ophthalmic microscope. […] Intravitreous injection was performed with 30-gauge beveled needle attached to PE10 polyethylene tubing and a 10 μl syringe (Hamilton, Reno, Nev.). The injections were performed through the sclera, approximately 1 mm behind the limbus. The needle remained in the vitreous cavity for 30 seconds after injection then gently withdrawn. Control groups were injected with 1 μl PBS, 1 μl control peptide (1 μg/μl), or blank nanospheres (0.1 mg/μl). […] Vetropolycin® ointment was applied to the injected eyes and animals were allowed to recover for 48 hours or 7 days before sacrifice.
Preparation of retinal tissue: at designated time points, mice were sacrificed by carbon dioxide inhalation followed by, in some cases, cervical dislocation. The eyes were enucleated, fixed in 4% paraformaldehyde for 24 hours, washed with PBS and embedded in paraffin. Five (5) μm thick sections that included the optic nerve were collected. Sections were processed for TUNEL, immunocytochemistry, or histochemical staining with hematoxylin and eosin (Surgipath, Ltd, Richmond, Ill.) using standard methods.
Morphologic and Morphometric Analysis: For each eye, three sections, which included the optic disk and were spaced at least 20 μm apart, were used for morphological analysis. The fields analyzed were 4×250 μm zones sampled from all retinal eccentricities. These zones were 500 μm away from the edge of optic disk or the ora serrata. The average measurement of these 4 zones was used for statistical analysis. The mean thickness of inner nuclear layer (INL) and inner plexiform layer (IPL) was measured using Axiovision3.1 software (Carl Zeiss MicroImaging, Inc., Thornwood, N.Y.). Total surviving cells in the retinal ganglion cell layer at the same locations were counted using light microscopy.
Statistical analysis: Twelve fields per retina were analyzed for each treatment, and a total of 72 fields were used. For statistical analysis, one-way analysis of variance (ANOVA) and Fisher tests were performed; p<0.05 was taken as significant. Data are presented as means and standard deviations.

STAT3 = test: Western blot of phosphorylated STAT3 in retinas after ischemic injury; details: 48 hours after ischemic injury; control retinas: detected only at 24 hours
Experimental: as §1, §2

GFAP = GFAP immunocytochemical labeling of Müller glial cells after transient ischemia
Experimental: Induction of transient retinal ischemia in C57/B16 mice: Animal experiments were conducted in accordance with ARVO guidelines and were approved by the Animal Care and Use Committee of Yale University School of Medicine. Transient retinal ischemia was induced in one eye and the contralateral eye served as control. During the operation and recovery period, animals were placed on water heating pads at 37° C. Eighty-one 10-14 weeks male C57/B16 mice (Charles River Laboratories, Wilmington, Mass., weighing […]) were used in this experiment. To induce retinal ischemia, a previously established technique with some modifications was used (Hughes, 1991, Exp Eye Res. 53(5):573-582; Buchi et al., 1991, Opthalmologica 203 (3): 138-147). Briefly, animals were anesthetized by i.p. injection of a mixture of 100 mg/kg Ketamine+10 mg/kg Xylazine. The corneas were topically anesthetized with 0.5% proparacaine hydrochloride (Bausch & Lomb Pharmaceuticals, Inc., Tampa, Fla.), and the pupils dilated with 2.5% phenylephrine (Bausch & Lomb Pharmaceuticals, Inc., Tampa, Fla.). The anterior chambers were cannulated in fully anesthetized animals with a 30-gauge infusion needle connected by PE10 polyethylene tubing and IV set to a physiological saline reservoir. The intraocular pressure (IOP) of the cannulated eye was raised to 120 mmHg for 60 minutes by elevating the saline reservoir. Retinal ischemia was confirmed by direct microscopic observation of whitening of the fundus. The reperfusion was confirmed visually when needle was withdrawn from the anterior chamber. One group of animals was treated with Vetropolycin® ophthalmic ointment (Pharmaderm, Melville, N. Y.) on the ischemic eyes and allowed to recover for 24 hours, 48 hours, 7 days and 14 days before sacrifice. Other groups were kept for intravitreous injections of the PEDF and PEDF peptides.
Intravitreous injection of PEDF, PEDF peptides and encapsulated PEDF peptide: One group of animals remained uninjected to monitor ischemic damage. All other groups received intravitreal injections, which were performed under an ophthalmic microscope. Experimental groups received 1 μl native PEDF protein (1 μg/μl), PEDF82-121 peptide (1 μg/μl), PEDF76-95 peptide (1 μg/μl), PEDF91-110 peptide (1 μg/μl), PEDF106-125 peptide (1 μg/μl) or PLGA PEDF82-121 nanospheres (0.1 mg/μl, less than 1.6 μg PEDF82-121 peptide when fully released) immediately after the end of the transient ischemia. Intravitreous injection was performed with 30-gauge beveled needle attached to PE10 polyethylene tubing and a 10 μl syringe (Hamilton, Reno, Nev.). The injections were performed through the sclera, approximately 1 mm behind the limbus. The needle remained in the vitreous cavity for 30 seconds after injection then gently withdrawn. […]

[2] = 48 hours after ischemia reperfusion

PEDF82-121: residues 82 to 121 of human PEDF, PLSVATALSALSLGAEQRTESIIHRALYYDLISSPDIHGT (SEQ ID NO: 3) ((1)..(40) Residues 82-121 of human PEDF; listed as Homo sapiens)
presence of phosphorylated Erk (Erk): strongly detected at 48 hours
surviving cells in the RGC layer compared with non-ischemia control [1, 2]: 80.1%
thickness of the INL compared with non-ischemia control [1, 2]: 100%
thickness of the IPL compared with non-ischemia control [1, 2]: 100%
protection of the retinal ganglion cell layer (in words) ([1]; 48 hours post ischemia, versus PBS or PEDF136-155): substantial protection
surviving cells in the RGC layer compared with non-ischemia control ([1]; 7 days after injury): 56.8%
thickness of the INL compared with non-ischemia control ([1]; 7 days after injury): 72.8%
thickness of the IPL compared with non-ischemia control ([1]; 7 days after injury): 62.7%
protection of the retinal ganglion cell layer (in words) ([1]; 7 days post ischemia, free single bolus or nanospheres): less
IPL thickness after ischemic injury (in words) ([1]; compared to PBS injected controls, time not stated): maintained the thickness of the IPL
presence of phosphorylated STAT3 (STAT3): also detected at 48 hours
GFAP labeling compared to PBS injections (GFAP; 48 hours after transient ischemia): less GFAP labeling
GFAP staining (GFAP; 7 days after injury): very similar staining
